Measurements as given in paper PMC3624624 (Bioorganic & medicinal chemistry letters, 2013).

How the values were obtained:
CXCR4 [1] = target: T1, CXCR4 (Homo sapiens, UniProt P61073); experiment: Inhibition of binding of anti-CXCR4 mAbs to cells; type: cell-based; conditions: for blocking of anti-CXCR4 mAb 44716 binding: H9 lymphoma cells, 1 μM compound, Fig. 2A; for inhibition of binding of anti-CXCR4 mAb 12G5 / inhibition of binding of anti-CXCR4 mAb 44708 / inhibition of binding of anti-CXCR4 mAb 44716 / inhibition of binding of anti-CXCR4 mAb 44717: 3 μM, Fig. 2C; for inhibition of anti-CXCR4 mAb 12G5 binding: titration, H9 cells and primary T cell blasts, Fig. 2B
T1 sequence (P61073 whole entry): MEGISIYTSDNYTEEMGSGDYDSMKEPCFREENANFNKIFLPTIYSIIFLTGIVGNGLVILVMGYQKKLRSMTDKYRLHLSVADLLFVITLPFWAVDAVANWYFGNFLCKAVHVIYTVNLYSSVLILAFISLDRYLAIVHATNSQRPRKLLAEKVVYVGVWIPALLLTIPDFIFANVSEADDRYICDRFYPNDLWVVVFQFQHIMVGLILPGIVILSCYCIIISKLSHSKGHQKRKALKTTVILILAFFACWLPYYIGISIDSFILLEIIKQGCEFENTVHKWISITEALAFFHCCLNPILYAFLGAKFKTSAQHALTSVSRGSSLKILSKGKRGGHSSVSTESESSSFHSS

PHA blast cultures = experiment: MTS toxicity on PHA blast cultures; type: cell-based; conditions: 72 h, concentrations up to 4 μM, data not shown
CXCR4 [2] = target: T1, CXCR4; experiment: Fluorescent T-140/CXCR4 cross-link inhibition; type: binding
CD4 = CD4 (Homo sapiens, UniProt P01730); experiment: Inhibition of binding of control anti-CD4 mAb Sim.2 to cells; type: cell-based; conditions: titration, H9 cells and primary T cell blasts, Fig. 2B
H9 = experiment: MTS toxicity on H9; type: cell-based; conditions: H9, 72 h, concentrations up to 4 μM, data not shown
X4 strains of HIV-1 = experiment: TZM-bl HIV-1 neutralization assay, X4 isolates; type: cell-based; conditions: TZM-bl cells, Fig. 3B
TZM-bl = experiment: MTS toxicity on TZM-bl; type: cell-based; conditions: 72 h, concentrations up to 4 μM, data not shown

SMILES	blocking of anti-CXCR4 mAb 44716 binding (CXCR4 [1])	inhibition in MTS dye reduction (PHA blast cultures)	fold higher CXCR4 affinity than the previously published phenylguanides (CXCR4 [2])	inhibition of anti-CD4 mAb Sim.2 binding (CD4)	inhibition in MTS dye reduction (H9)	inhibition of a panel of four X4-tropic viruses (X4 strains of HIV-1)	inhibition in MTS dye reduction (TZM-bl)	inhibition of binding of anti-CXCR4 mAb 12G5 (CXCR4 [1])	inhibition of binding of anti-CXCR4 mAb 44708 (CXCR4 [1])	inhibition of binding of anti-CXCR4 mAb 44716 (CXCR4 [1])	inhibition of binding of anti-CXCR4 mAb 44717 (CXCR4 [1])	inhibition of anti-CXCR4 mAb 12G5 binding (CXCR4 [1])
N=C(NCCCNCCCCN(CCCNC(=N)Nc1ccc2ccccc2c1)C(=N)Nc1ccc2ccccc2c1)Nc1ccc2ccccc2c1 [spermine tris-2-NapG, spermine tris-2-naphthylguanide]	next best	–	–	–	–	–	–	–	–	–	–	–
N=C(NCCCNCCCCN(CCCNC(=N)Nc1cccc2ccccc12)C(=N)Nc1cccc2ccccc12)Nc1cccc2ccccc12 [spermine tris-1-NapG, spermine tris-1-naphthylguanide]	most effective	no significant inhibition	5 fold	not anti-CD4	no significant inhibition	all were inhibited at submicromolar concentrations	no significant inhibition	completely inhibited	only partly inhibited	completely inhibited	only partly inhibited	inhibits anti-CXCR4 binding
NCCCNCCCCNCCCN [spermine, reference compound]	–	–	–	–	–	–	–	No inhibition	No inhibition	No inhibition	No inhibition	does not inhibit
